Data on one compound can be found in patent US20040073277A1, “High fluence rate activation of photosensitizers for dermatological applications” (priority 2002, published 2004).

SMILES strings stand for the structures. Where two headings read alike, the source gives them in different places.

Data set [1] relates to actinic keratoses. The conditions noted are these: irradiation 4 hours after ALA, 580 to 740 nm lamp, 20 J/cm^2; cited from earlier work.
The test system of data set [2] is actinic keratoses. The conditions noted are these: cited from earlier work.
The subject of the next data set is hair follicles. The conditions noted are these: photodynamic injury to hair follicles; cited from earlier work.
Data set [3] concerns photoaged or wrinkled skin. The conditions noted are these: following ALA-PDT; cited from earlier work.
Data set [4] relates to actinic keratoses. The experiment in a line: ALA-PDT of lesional skin with pulsed dye laser below the purpura threshold. Type of data set: in vivo, human. On the procedure: The present invention is generally directed to a method for activation of photodynamic sensitizers in dermatologic application.
The pulsed dye laser was operated below the purpura threshold of the skin at a fluence of about 3.0 to about 7.5 J/cm^2. […] Treatment was performed and successful with and without surface cooling. Surface cooling provided epidermal protection and additional pain reduction.

Data set [5] deals with acne. The conditions noted are these: red light from a halogen lamp, 13 J/cm^2; cited from earlier work.
Data set [6] has as its system acne. The conditions noted are these: 20% ALA for 3 hours on the back; broadband lamp 550 to 700 nm, 150 J/cm^2; cited from earlier work.
The mark [7] stands for this setting: 20% ALA for 6 hours, 585 nm, 1.5 milliseconds, 18 J/cm^2.
The mark [8] stands for this setting: actinic keratoses, pulsed dye laser 595 nm below purpura threshold.

On to `NCC(=O)CCC(=O)O` [ALA, 5-Aminolevulinic acid], for which the side effects entry in the data set on actinic keratoses [1] was “erythema and skin erosions occurred”. Further, in the data set on actinic keratoses [2] (setting [7]), the “efficacy of pulsed dye laser versus conventional lamp” value is given as “similar” and the “pain with pulsed dye laser versus conventional lamp” value is recorded as “significantly lower”. Further, the “duration of purpura after treatment” value in the data set with actinic keratoses [2] (pulsed dye laser only, 585 nm, 1.5 milliseconds, 18 J/cm^2) is given as “up to two weeks”. For the same compound, the “duration of erythema and crusting after treatment” value in the data set on actinic keratoses [2] (similar for pulsed dye laser and conventional lamp) is reported as “up to two weeks”. The “excessive or unwanted hair” value in the data set with hair follicles is recorded as “reduced”. In addition, in data set [3], the “photoaged or wrinkled skin” value is recorded as “improve”. The “treatment outcome of the lesion” value in the data set with actinic keratoses [4] (ALA applied to lesional skin, pulsed dye laser 595 nm, pulse duration 3 to 40 milliseconds, fluence about 3.0 to about 7.5 J/cm^2) was “successfully treated”. In the data set with actinic keratoses [4] (setting [8]), the “pain, crusting and erosions of treated lesions” value is “reduction in pain and in crusting and erosions”; the purpura entry is on record as “without purpura”. Further, in the data set with actinic keratoses [4] (pulsed light source), the “efficacy compared with conventional ALA-PDT” value is listed as “efficacy equivalent to conventional ALA-PDT”; the “side effects compared with conventional ALA-PDT” value was “fewer and minimal side effects”. Further, in the data set on acne [5], the side effects result is “edematous erythema, epidermal exfoliation and irritation lasting several days, and pigmentation changes”; the therapeutic response result was “excellent therapeutic response”; the “time for treated skin to return to normal” value is recorded as “one month”. In the data set with acne [6], the acne response entry was “improved”; the side effects result was “erythema, edema, exfoliation, and long-lasting hyperpigmentation”.
